{"source": "the supplement of paper PMC10307832"}
{"compound": "C1=CC2=NC=CN=C2C=C1/C=C/3\\C(=O)NC(=O)S3 + COc1cccc2cc(-c3nc([C@H]4CC[C@H](C(=O)O)CC4)n4ncnc(N)c34)[nH]c12 [OSI-027] (partner 0.5 µM)", "assay": "relative viability (nuclei count vs DMSO), 5 days (fraction); higher = more cells survive", "conditions": "first compound 2 µM", "in_short": "(§1)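 Lung cancer cell lines were pin-tool dosed in 1536-well plates on the day after seeding, with either a lone drug or a fixed anchor-drug dose plus five library-drug doses (not always all listed) in √10 steps. Nuclei were counted on 4× images after 5 days. Relative viability is the ratio of treated-well to vehicle-well nuclei counts, with each value a median of duplicate plates.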"}
{"cell line": "LU99A", "relative viability": 0.218}
{"cell line": "BEN", "relative viability": 0.275}
{"cell line": "NCI-H1648", "relative viability": 0.261}
{"cell line": "NCI-H1563", "relative viability": 0.65}
{"compound": "CCN1CCN(c2ccc(Nc3cc(N(C)C(=O)Nc4c(Cl)c(OC)cc(OC)c4Cl)ncn3)cc2)CC1 [BGJ398] + N=C(N)NC(=N)NCCc1ccccc1 [Phenformin] (partner 250 µM)", "assay": "relative viability (nuclei count vs DMSO), 5 days (fraction); higher = more cells survive", "conditions": "first compound 0.01 µM", "in_short": "as §1"}
{"cell line": "NCI-H522", "relative viability": 0.585}
{"cell line": "NCI-H1623", "relative viability": 0.641}
{"cell line": "NCI-H727", "relative viability": 0.668}
{"cell line": "NCI-H1650", "relative viability": 0.369}
{"cell line": "NCI-H1993", "relative viability": 0.554}
{"cell line": "SW 1573", "relative viability": 0.312}
{"cell line": "NCI-H838", "relative viability": 0.446}
{"cell line": "LCLC-103H", "relative viability": 0.317}
{"cell line": "NCI-H520", "relative viability": 0.532}
{"cell line": "NCI-H2126", "relative viability": 0.505}
{"cell line": "EMC-BAC-2", "relative viability": 0.497}
{"cell line": "NCI-H2085", "relative viability": 0.668}
{"cell line": "HCC-366", "relative viability": 0.632}
{"cell line": "NCI-H1666", "relative viability": 0.55}
{"cell line": "NCI-H596", "relative viability": 0.597}
{"cell line": "LK-2", "relative viability": 0.268}
{"cell line": "NCI-H2087", "relative viability": 0.44}
{"cell line": "NCI-H2342", "relative viability": 0.574}
{"cell line": "SK-MES-1", "relative viability": 0.584}
{"cell line": "H3255", "relative viability": 0.338}
{"cell line": "COR-L23", "relative viability": 0.42}
{"cell line": "COR-L 105", "relative viability": 0.425}
{"cell line": "LOU-NH91", "relative viability": 0.676}
{"cell line": "ChaGo-K-1", "relative viability": 0.488}
{"cell line": "NCI-H2170", "relative viability": 0.374}
{"cell line": "NCI-H2405", "relative viability": 0.394}
{"cell line": "HOP-62", "relative viability": 0.649}
{"cell line": "HCC-44", "relative viability": 0.213}
{"cell line": "A549", "relative viability": 0.12}
{"cell line": "SW 900", "relative viability": 0.639}
{"cell line": "LU99A", "relative viability": 0.937}
{"cell line": "BEN", "relative viability": 0.263}
{"cell line": "NCI-H1563", "relative viability": 0.638}
{"compound": "CCN1CCN(c2ccc(Nc3cc(N(C)C(=O)Nc4c(Cl)c(OC)cc(OC)c4Cl)ncn3)cc2)CC1 [BGJ398] + N=C(N)NC(=N)NCCc1ccccc1 [Phenformin] (partner 250 µM)", "assay": "relative viability (nuclei count vs DMSO), 5 days (fraction); higher = more cells survive", "conditions": "first compound 0.03162 µM", "in_short": "as §1"}
{"cell line": "NCI-H522", "relative viability": 0.599}
{"cell line": "NCI-H1623", "relative viability": 0.427}
{"cell line": "NCI-H727", "relative viability": 0.521}
{"cell line": "NCI-H1993", "relative viability": 0.485}
{"cell line": "SW 1573", "relative viability": 0.456}
{"cell line": "NCI-H838", "relative viability": 0.549}
{"cell line": "LCLC-103H", "relative viability": 0.331}
{"cell line": "NCI-H520", "relative viability": 0.481}
{"cell line": "NCI-H2126", "relative viability": 0.57}
{"cell line": "EMC-BAC-2", "relative viability": 0.585}
{"cell line": "NCI-H2085", "relative viability": 0.663}
{"cell line": "HCC-366", "relative viability": 0.672}
{"cell line": "NCI-H1666", "relative viability": 0.609}
{"cell line": "NCI-H596", "relative viability": 0.724}
{"cell line": "LK-2", "relative viability": 0.295}
{"cell line": "NCI-H2087", "relative viability": 0.438}
{"cell line": "NCI-H2342", "relative viability": 0.629}
{"cell line": "SK-MES-1", "relative viability": 0.691}
{"cell line": "COR-L23", "relative viability": 0.441}
{"cell line": "COR-L 105", "relative viability": 0.377}
{"cell line": "ChaGo-K-1", "relative viability": 0.47}
{"cell line": "NCI-H2170", "relative viability": 0.428}
{"cell line": "NCI-H2405", "relative viability": 0.432}
{"cell line": "HOP-62", "relative viability": 0.704}
{"cell line": "HCC-44", "relative viability": 0.349}
{"cell line": "A549", "relative viability": 0.217}
{"cell line": "SW 900", "relative viability": 0.702}
{"cell line": "LU99A", "relative viability": 0.934}
{"cell line": "BEN", "relative viability": 0.284}
{"cell line": "NCI-H1563", "relative viability": 0.67}
{"compound": "CCN1CCN(c2ccc(Nc3cc(N(C)C(=O)Nc4c(Cl)c(OC)cc(OC)c4Cl)ncn3)cc2)CC1 [BGJ398] + N=C(N)NC(=N)NCCc1ccccc1 [Phenformin] (partner 250 µM)", "assay": "relative viability (nuclei count vs DMSO), 5 days (fraction); higher = more cells survive", "conditions": "first compound 0.1 µM", "in_short": "as §1"}
{"cell line": "NCI-H522", "relative viability": 0.692}
{"cell line": "NCI-H1623", "relative viability": 0.619}
{"cell line": "NCI-H727", "relative viability": 0.635}
{"cell line": "NCI-H1650", "relative viability": 0.399}
{"cell line": "NCI-H1993", "relative viability": 0.479}
{"cell line": "SW 1573", "relative viability": 0.405}
{"cell line": "NCI-H838", "relative viability": 0.612}
{"cell line": "LCLC-103H", "relative viability": 0.336}
{"cell line": "NCI-H520", "relative viability": 0.379}
{"cell line": "NCI-H2126", "relative viability": 0.541}
{"cell line": "EMC-BAC-2", "relative viability": 0.558}
{"cell line": "NCI-H2085", "relative viability": 0.817}
{"cell line": "HCC-366", "relative viability": 0.6}
{"cell line": "NCI-H1666", "relative viability": 0.622}
{"cell line": "NCI-H596", "relative viability": 0.842}
{"cell line": "LK-2", "relative viability": 0.255}
{"cell line": "NCI-H2087", "relative viability": 0.507}
{"cell line": "NCI-H2342", "relative viability": 0.704}
{"cell line": "SK-MES-1", "relative viability": 0.677}
{"cell line": "H3255", "relative viability": 0.371}
{"cell line": "COR-L23", "relative viability": 0.5}
{"cell line": "COR-L 105", "relative viability": 0.525}
{"cell line": "LOU-NH91", "relative viability": 0.712}
{"cell line": "ChaGo-K-1", "relative viability": 0.525}
{"cell line": "NCI-H2170", "relative viability": 0.448}
{"cell line": "NCI-H2405", "relative viability": 0.377}
{"cell line": "HOP-62", "relative viability": 0.737}
{"cell line": "HCC-44", "relative viability": 0.193}
{"cell line": "A549", "relative viability": 0.154}
{"cell line": "SW 900", "relative viability": 0.559}
{"cell line": "LU99A", "relative viability": 0.925}
{"cell line": "BEN", "relative viability": 0.284}
{"cell line": "NCI-H1563", "relative viability": 0.595}
{"compound": "CCN1CCN(c2ccc(Nc3cc(N(C)C(=O)Nc4c(Cl)c(OC)cc(OC)c4Cl)ncn3)cc2)CC1 [BGJ398] + N=C(N)NC(=N)NCCc1ccccc1 [Phenformin] (partner 250 µM)", "assay": "relative viability (nuclei count vs DMSO), 5 days (fraction); higher = more cells survive", "conditions": "first compound 0.3162 µM", "in_short": "as §1"}
{"cell line": "NCI-H522", "relative viability": 0.593}
{"cell line": "NCI-H1623", "relative viability": 0.548}
{"cell line": "NCI-H727", "relative viability": 0.568}
{"cell line": "NCI-H1650", "relative viability": 0.187}
{"cell line": "NCI-H1993", "relative viability": 0.523}
{"cell line": "SW 1573", "relative viability": 0.407}
{"cell line": "NCI-H838", "relative viability": 0.437}
{"cell line": "LCLC-103H", "relative viability": 0.284}
{"cell line": "NCI-H520", "relative viability": 0.189}
{"cell line": "NCI-H2126", "relative viability": 0.547}
{"cell line": "EMC-BAC-2", "relative viability": 0.5}
{"cell line": "NCI-H2085", "relative viability": 0.782}
{"cell line": "HCC-366", "relative viability": 0.613}
{"cell line": "NCI-H1666", "relative viability": 0.581}
{"cell line": "NCI-H596", "relative viability": 0.722}
{"cell line": "LK-2", "relative viability": 0.18}
{"cell line": "NCI-H2087", "relative viability": 0.386}
{"cell line": "NCI-H2342", "relative viability": 0.572}
{"cell line": "SK-MES-1", "relative viability": 0.589}
{"cell line": "H3255", "relative viability": 0.231}
{"cell line": "COR-L23", "relative viability": 0.397}
{"cell line": "COR-L 105", "relative viability": 0.556}
{"cell line": "LOU-NH91", "relative viability": 0.455}
{"cell line": "ChaGo-K-1", "relative viability": 0.487}
{"cell line": "NCI-H2170", "relative viability": 0.393}
{"cell line": "NCI-H2405", "relative viability": 0.394}
{"cell line": "HOP-62", "relative viability": 0.604}
{"cell line": "HCC-44", "relative viability": 0.195}
{"cell line": "A549", "relative viability": 0.125}
{"cell line": "SW 900", "relative viability": 0.196}
{"cell line": "LU99A", "relative viability": 0.765}
{"cell line": "BEN", "relative viability": 0.261}
{"cell line": "NCI-H1563", "relative viability": 0.514}
{"compound": "CCN1CCN(c2ccc(Nc3cc(N(C)C(=O)Nc4c(Cl)c(OC)cc(OC)c4Cl)ncn3)cc2)CC1 [BGJ398] + N=C(N)NC(=N)NCCc1ccccc1 [Phenformin] (partner 250 µM)", "assay": "relative viability (nuclei count vs DMSO), 5 days (fraction); higher = more cells survive", "conditions": "first compound 1 µM", "in_short": "as §1"}
{"cell line": "NCI-H522", "relative viability": 0.603}
{"cell line": "NCI-H1623", "relative viability": 0.497}
{"cell line": "NCI-H727", "relative viability": 0.516}
{"cell line": "NCI-H1650", "relative viability": 0.365}
{"cell line": "NCI-H1993", "relative viability": 0.575}
{"cell line": "SW 1573", "relative viability": 0.368}
{"cell line": "NCI-H838", "relative viability": 0.305}
{"cell line": "LCLC-103H", "relative viability": 0.277}
{"cell line": "NCI-H520", "relative viability": 0.242}
{"cell line": "NCI-H2126", "relative viability": 0.475}
{"cell line": "EMC-BAC-2", "relative viability": 0.509}
{"cell line": "NCI-H2085", "relative viability": 0.807}
{"cell line": "HCC-366", "relative viability": 0.673}
{"cell line": "NCI-H1666", "relative viability": 0.557}
{"cell line": "NCI-H596", "relative viability": 0.66}
{"cell line": "LK-2", "relative viability": 0.271}
{"cell line": "NCI-H2087", "relative viability": 0.494}
{"cell line": "NCI-H2342", "relative viability": 0.657}
{"cell line": "SK-MES-1", "relative viability": 0.593}
{"cell line": "H3255", "relative viability": 0.35}
{"cell line": "COR-L23", "relative viability": 0.391}
{"cell line": "COR-L 105", "relative viability": 0.448}
{"cell line": "LOU-NH91", "relative viability": 0.474}
{"cell line": "ChaGo-K-1", "relative viability": 0.458}
{"cell line": "NCI-H2170", "relative viability": 0.341}
{"cell line": "NCI-H2405", "relative viability": 0.371}
